One assay concerns the target T1, CXCR4 (Homo sapiens, UniProt P61073).
T1 construct: endogenous in cells; host or cells: MDA-MB-231
Put plainly: Primary binding affinity screening (competition with biotinylated TN14003). As for the experimental part: The compounds were initially screened with a binding affinity assay. […] MDA-MB-231 cells were pre-incubated with compounds at concentrations of 1, 10, 100, and 1000 nM, then incubated with biotinylated TN14003 and streptavidin-conjugated rhodamine to determine the binding efficiency of the new compounds to the CXCL12 binding domain of CXCR4. […] Thus, this screening is a semi-quantitative, first pass measure of the level of activity.
For binding affinity assay, 2×10^4 MDA-MB-231 cells in 300 μL of cell culture medium were seeded in an 8-well slide chamber 2 days before the experiments were conducted. Various concentrations of different compounds (1, 10, 100, or 1000 nM) were added to the separate wells and incubated for 10 min at room temperature, and then the cells were fixed in 4% ice-cold paraformaldehyde. The cells were rehydrated in phosphate-buffered saline (PBS). The slides were subsequently incubated for 30 min at room temperature with 0.05 μg/mL biotinylated TN14003, washed three times with PBS, and incubated in streptavidin-rhodamine (1:150 dilution; Jackson ImmunoResearch Laboratories, West Grove, Pa.) for 30 min at room temperature. Finally, the slides were washed with PBS and mounted in an anti-fade mounting solution (Molecular Probes, Eugene, Oreg.), and the samples were analyzed on a Nikon Eclipse E800 microscope.

Assay [1] concerns CXCR4/CXCL12-mediated chemotaxis and invasion. The experiment in a line: Matrigel invasion assay. It counts as cell-based. Particulars: for Invasion: Table 3, concentration used 100 nM; for Invasion Assay: Table 2; for inhibition at 0.1 µM: single concentration of 100 nM, CXCL12 as chemoattractant, FIG. 2, read-out: inhibitory rate, Matrigel invasion. An excerpt: To model in vitro metastasis, a Matrigel® invasion assay was used as the functional assay. […] A layer of Matrigel® matrix-coated permeable support (8 μm pore diameter) separates the upper and lower chambers.

Assay [2] concerns carrageenan-induced mouse paw edema. The experiment in a line: In vivo suppression against carrageenan-induced paw edema. Particulars: for Carageenan: Table 3, mice dosed 10 mg of compound per kg; for inflammation-suppression percentage (paw edema): female C57BL/6J mice, 74 h after carrageenan challenge. The method, then: CXCR4 plays a role in the recruitment of inflammatory cells to sites of inflammation. Blocking CXCR4 is a therapeutic strategy in inflammatory diseases. A carrageenan-induced mouse paw edema model as an efficient model to evaluate the in vivo CXCR4 antagonistic activity for CXCR4 inhibitors.
Acute inflammation was induced by subcutaneous injection of 50 μL of λ-carrageenan (1% w/v in saline) into one of the hind paws of the female C57BL/6J mice (Jackson Laboratories); the other hind paw was injected with 50 μL of saline, which was used as a non-inflammation control. The selected compounds were dissolved in 10% DMSO and 90% of 45% (2-hydroxypropyl)-β-cyclodextrin (CD) in PBS. In the treatment group, compounds IIg, IIk, IIm and IIn were administered intraperitoneally (i.p.) at 10 mg/kg daily, while TN14003 was administered at 300 μg/kg, i.p., daily, 30 min following carrageenan challenge. The rationale for using 300 μg/kg for TN14003 was that this concentration was reported to be the minimum concentration needed to achieve the maximum efficacy of this compound in a […] metastasis animal model. See Yoon et al. CXC chemokine receptor-4 antagonist blocks both growth of primary tumor and metastasis of head and neck cancer in xenograft mouse models. Cancer Res., 67 (2007), pp. 7518-7524. Control animals received corresponding i.p. injections of the vehicle. The animals were sacrificed 74 h after carrageenan challenge and 2 h after the last injection of the selected compounds. The final paws were photographed and measured for thickness from the “palm” to the back of the paw with a caliper. These were compared to the volume of carrageenan-untreated contralateral paw to obtain the edema volume; the volume of the contralateral paw was subtracted from the volume of the carrageenan injected paw to obtain the edema volume. The inflammation-suppression percentage was calculated by comparing the drug-treated group to the control group.
Background: Carrageenan injected into the paw causes an acute inflammation.

[3] abbreviates: effective concentration = lowest concentration with significant reduction of rhodamine fluorescence, MDA-MB-231 cells, tested at 1, 10, 100, 1000 nM.

T1 sequence (P61073 whole entry): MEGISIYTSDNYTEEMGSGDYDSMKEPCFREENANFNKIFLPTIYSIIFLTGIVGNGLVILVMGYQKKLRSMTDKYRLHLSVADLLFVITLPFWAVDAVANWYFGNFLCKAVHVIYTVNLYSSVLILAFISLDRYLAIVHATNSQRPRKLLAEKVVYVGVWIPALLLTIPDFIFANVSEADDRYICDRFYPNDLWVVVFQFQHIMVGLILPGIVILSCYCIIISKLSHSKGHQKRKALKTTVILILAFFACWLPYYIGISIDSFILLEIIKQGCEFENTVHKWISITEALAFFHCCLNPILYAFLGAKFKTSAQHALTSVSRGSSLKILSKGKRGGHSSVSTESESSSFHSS

`CN(Cc1ccc(CN(C)Cc2cccnc2)cc1)Cc1cccnc1` [Io, N,N′-(1,4-Phenylenebis(methylene))bis(N-methyl-1-(pyridin-3-yl)methanamine)] registered an EC on CXCR4 (setting [3]) greater than 1000 nM. Still for that read-out and setting: next, `CN(Cc1ccncc1)Cc1ccc(CN(C)Cc2ccncc2)cc1` [Ip, N,N′-(1,4-Phenylenebis(methylene))bis(N-methyl-1-(pyridin-4-yl)methanamine)]: greater than 1000 nM. As for `c1cc(CN2CCCNCCNCCCNCC2)ccc1CN1CCCNCCNCCCNCC1` [AMD3100, reference compound], the EC on CXCR4 (Table 3) and on CXCR4 (setting [3]) was 1000 nM in each case. Moreover, the Invasion in assay [1] stood at 62%. Compound `c1cc(CN2CCOCC2)nc(CN2CCOCC2)c1` [2,6-Bis(morpholinylmethyl)pyridine] came in with an EC at CXCR4 (Table 3) of 10 nM. For the same compound, in assay [1], the Invasion stood at 63%. Besides, the Carageenan in assay [2] came out at 39.1%. On to `CN(Cc1ccc(CN(C)Cc2cccc(F)c2)cc1)Cc1cccc(F)c1` [Ii, N,N′-(1,4-Phenylenebis(methylene))bis(1-(3-fluorophenyl)-N-methylmethanamine)], for which the EC on CXCR4 (setting [3]) is reported as greater than 1000 nM. Take `Cc1cccc(NCc2ccc(CNc3cccc(C)c3)nc2)c1` [N,N′-(Pyridine-2,5-diylbis(methylene))bis(3-methylaniline)]: the EC at CXCR4 (Table 2) is recorded as 100 nm. The compound also had an EC at CXCR4 (Table 3) of 1 nM. In assay [1], the “Invasion Assay” value is 60.2% and the Invasion is listed as 58%. In the case of `CCN(Cc1ccccc1)Cc1cccc(CN(CC)Cc2ccccc2)n1` [IIl, N,N′-(Pyridine-2,6-diylbis(methylene))bis(N-benzylethanamine)], the EC at CXCR4 (setting [3]) is reported as greater than 1000 nM. Same read-out and setting: under `CN(Cc1ccc(CN(C)Cc2ccccc2F)cc1)Cc1ccccc1F` [Ih, N,N′-(1,4-Phenylenebis(methylene))bis(1-(2-fluorophenyl)-N-methylmethanamine)] stands greater than 1000 nM. With `Fc1cccc(NCc2ccc(CNc3cccc(F)c3)nc2)c1` [2,5-pyridine H 3-F Phenyl, N,N′-(Pyridine-2,5-diylbis(methylene))bis(3-fluoroaniline)], on CXCR4 (Table 2), the EC stood at 10 nm. Also, in assay [1], the “Invasion Assay” value is on record as 50%. Regarding `COc1cccc(NCc2cccc(CNc3cccc(OC)c3)n2)c1` [2,6-Bis(3-methoxyanilinomethyl)pyridine], on CXCR4 (Table 3), the EC turned out to be 100 nM. The same compound yielded an Invasion in assay [1] of 37%. This compound gave a Carageenan in assay [2] of 20.1%. For the compound `CN(Cc1cccc(F)c1)Cc1cccc(CN(C)Cc2cccc(F)c2)n1` [IIi, N,N′-(Pyridine-2,6-diylbis(methylene))bis(1-(3-fluorophenyl)-N-methylmethanamine)], the EC on CXCR4 (setting [3]) was greater than 1000 nM. The same measure, in the same setting: next, `CN(Cc1ccc(CN(C)Cc2ccccn2)cc1)Cc1ccccn1` [In, N,N′-(1,4-Phenylenebis(methylene))bis(N-methyl-1-(pyridin-2-yl)methanamine)]: greater than 1000 nM. As to `COc1cccc(CN(C)Cc2cccc(CN(C)Cc3cccc(OC)c3)n2)c1` [IIk, N,N′-(Pyridine-2,6-diylbis(methylene))bis(1-(3-methoxyphenyl)-N-methylmethanamine)], the EC at CXCR4 (setting [3]) was 10 nM. The inhibition at 0.1 µM in assay [1] was 76.7%. For the same compound, the “inflammation-suppression percentage (paw edema)” value in assay [2] (10 mg/kg i.p. daily) came to 31.0%. Consider `CN(Cc1cccc(CN(C)c2ccc(F)cc2)n1)c1ccc(F)cc1` [IIe, N,N′-(Pyridine-2,6-diylbis(methylene))bis(4-fluoro-N-methylaniline)], for which, on CXCR4 (setting [3]), the EC is reported as 1000 nM. For the same compound, the inhibition at 0.1 µM in assay [1] was less than 50%. At CXCR4 (setting [3]), `CN(Cc1cccnc1)Cc1cccc(CN(C)Cc2cccnc2)n1` [IIo, N,N′-(Pyridine-2,6-diylbis(methylene))bis(N-methyl-1-(pyridin-3-yl)methanamine)] displayed an EC greater than 1000 nM. Take `c1cc(CN2CCOCC2)nc(CN2CCOCC2)c1` [IIc, 2,6-Bis(morpholinomethyl)pyridine]: the EC at CXCR4 (setting [3]) is 100 nM. In addition, the inhibition at 0.1 µM in assay [1] is 68.9%.

Take `COc1cccc(CN(C)Cc2ccc(CN(C)Cc3cccc(OC)c3)cc2)c1` [Ik, N,N′-(1,4-Phenylenebis(methylene))bis(1-(3-methoxyphenyl)-N-methylmethanamine)]: the EC at CXCR4 (setting [3]) is 10 nM. The inhibition at 0.1 µM in assay [1] was less than 50%. As for `CN(Cc1cccc(CN(C)Cc2ccccc2F)n1)Cc1ccccc1F` [IIh, N,N′-(Pyridine-2,6-diylbis(methylene))bis(1-(2-fluorophenyl)-N-methylmethanamine)], the EC at CXCR4 (setting [3]) was determined as 1000 nM. On CXCR4 (Table 2), `CCc1ccc(NCc2ccc(CNc3ccc(CC)cc3)nc2)cc1` [2,5-pyridine H 4-Et Phenyl, N′-(Pyridine-2,5-diylbis(methylene))bis(4-ethylaniline)] displayed an EC of 1 nm. In addition, the “Invasion Assay” value in assay [1] was found to be 64%. Consider `CN(Cc1ccncc1)Cc1cccc(CN(C)Cc2ccncc2)n1` [IIp, N,N′-(Pyridine-2,6-diylbis(methylene))bis(N-methyl-1-(pyridin-4-yl)methanamine)], for which the EC on CXCR4 (setting [3]) is reported as greater than 1000 nM. Same read-out and setting: under `CN(Cc1ccc(CN(C)Cc2ccccc2Cl)cc1)Cc1ccccc1Cl` [If, N,N′-(1,4-Phenylenebis(methylene))bis(1-(2-chlorophenyl)-N-methylmethanamine)] stands greater than 1000 nM. `c1ccc(CN(Cc2cccc(CN(Cc3ccccc3)CC3CC3)n2)CC2CC2)cc1` [IIm, N,N′-(Pyridine-2,6-diylbis(methylene))bis(N-benzyl-1-cyclopropylmethanamine)] yielded an EC at CXCR4 (setting [3]) of 1 nM. In addition, the inhibition at 0.1 µM in assay [1] was determined as 100%.

Consider `CN(Cc1ccc(CN(C)Cc2cccc(Cl)c2)cc1)Cc1cccc(Cl)c1` [Ig, N,N′-(1,4-Phenylenebis(methylene))bis(1-(3-chlorophenyl)-N-methylmethanamine)], for which the EC on CXCR4 (setting [3]) amounted to 1000 nM. On CXCR4 (setting [3]), `CN(Cc1cccc(Cl)c1)Cc1cccc(CN(C)Cc2cccc(Cl)c2)n1` [IIg, N,N′-(Pyridine-2,6-diylbis(methylene))bis(1-(3-chlorophenyl)-N-methylmethanamine)] displayed an EC of 10 nM. Besides, the inhibition at 0.1 µM in assay [1] came out at 88.6%.

As to TN14003 [reference compound], the “inflammation-suppression percentage (paw edema)” value in assay [2] (300 μg/kg i.p. daily) was 48%. `CCN(Cc1ccccc1)Cc1ccc(CN(CC)Cc2ccccc2)cc1` [Il, N,N′-(1,4-Phenylenebis(methylene))bis(N-benzylethanamine)]: at CXCR4 (setting [3]), the EC was determined as 1000 nM. Same read-out and setting: next, `CN(Cc1ccc(F)cc1)Cc1cccc(CN(C)Cc2ccc(F)cc2)n1` [IIj, N,N′-(Pyridine-2,6-diylbis(methylene))bis(1-(4-fluorophenyl)-N-methylmethanamine)]: 1000 nM; `c1cc(CN2CCCC2)nc(CN2CCCC2)c1` [IIa, 2,6-Bis(pyrrolidin-1-ylmethyl)pyridine]: 1 nM. On the same count and under the same terms, next, `c1ccc(CN(Cc2ccc(CN(Cc3ccccc3)CC3CC3)cc2)CC2CC2)cc1` [Im, N,N′-(1,4-Phenylenebis(methylene))bis(N-benzyl-1-cyclopropylmethanamine)]: 1000 nM; `CN(Cc1cccc(CN(C)Cc2ccccc2Cl)n1)Cc1ccccc1Cl` [IIf, N,N′-(Pyridine-2,6-diylbis(methylene))bis(1-(2-chlorophenyl)-N-methylmethanamine)]: greater than 1000 nM. In turn, `c1cc(CN2CCCCC2)nc(CN2CCCCC2)c1` [IIb, 2,6-Bis(piperidin-1-ylmethyl)pyridine] gave an EC at CXCR4 (setting [3]) of 1 nM. Moreover, in assay [1], the inhibition at 0.1 µM worked out at 65.3%. On CXCR4 (setting [3]), `c1cc(CN2CCCC2)ccc1CN1CCCC1` [Ia, 1,4-Bis(pyrrolidin-1-ylmethyl)benzene] returned an EC of 1000 nM.
